The source of these data is ChEMBL document CHEMBL1153122, “Pyrazolone based TGFbetaR1 kinase inhibitors” (Bioorg Med Chem Lett, 2010).

Molecules are shown by their SMILES.

For one series, the species on record is Mus musculus. The series is described as follows: animal or person. Conditions: BALB/c, po, 1 h, read-out: INH.
Series [1] can be described thus: Half life in rat at 5 mg/kg, po and iv. The class given is ADME, organism-based. The settings on record: in vivo. Further details: dose 5 mg/kg, route oral.
Series [2] is described as follows: Oral bioavailability in rat at 5 mg/kg. The class given is ADME, organism-based. Conditions: in vivo.

The half-life is how long it takes for the measured level to halve. Higher therefore signals slow loss. What is called bioavailability is dose-corrected exposure relative to a reference, in per cent. Take `Cn1c(-c2ccc3nccnc3c2)c(-c2cccc(Br)c2)c(=O)n1C`: the inhibition in vivo at 3 mg/kg in the series listed under Mus musculus was found to be 43%. Moreover, in series [1], the half-life is 3 h. The bioavailability in series [2] worked out at 34%.
